# Where two headings read alike, the source gives them in different places.
# Tests used:
# [1] = system: Bacillus stearothermophilus spores
# Text: The Petri dish contained a biological challenge consisting of 2.2×10^6 Bacillus stearothermophilus spores on a stainless steel coupon. A coupon was also placed in the center of each of the three lumens. The coupon in the Petri dish was used as a test of the effectiveness of the method at sterilizing the exterior of a device, and the coupons in the lumens were a test of the effectiveness of sterilizing the interior of the lumens. In the following experiment, the condensed hydrogen peroxide was revaporized multiple times. The following procedure was followed in the experiment. A tray containing the Petri dish and three lumens with inoculated blades was placed in a 173 L sterilization chamber, as in the other examples, and the chamber was evacuated to 0.4 torr. The experiment with multiple revaporizations was conducted as follows: 1. 3 grams of 59% hydrogen peroxide were introduced into the vaporizer. 2. The hydrogen peroxide was vaporized and introduced into the sterilization chamber over a period of 5 minutes. 3. The pressure was reduced to 4 torr for 5 minutes to revaporize the hydrogen peroxide. 4. The sterilization chamber was vented to 1 atmosphere pressure for 0.5 minutes to condense the vapor again. 5. The pressure in the sterilization chamber was reduced to 4 torr and maintained at a constant pressure of 4 torr for 14.5 minutes. The total cycle lasted 25 minutes.
# [2] = system: Bacillus stearothermophilus spores; conditions: 3 g of 59 wt % hydrogen peroxide, 5 Minutes Vaporization and 20 Minutes Diffusion
# Experimental: (§1) The Petri dish contained a biological challenge consisting of 2.2×10^6 Bacillus stearothermophilus spores on a stainless steel coupon. A coupon was also placed in the center of each of the three lumens. The coupon in the Petri dish was used as a test of the effectiveness of the method at sterilizing the exterior of a device, and the coupons in the lumens were a test of the effectiveness of sterilizing the interior of the lumens.
# In this example, the procedure of Example 3 was carried out, but the valve between the sterilization chamber and the vacuum pump was closed after the desired pressure was reached. In Example 3, constant pressure was maintained throughout the 20 minutes of diffusion.
# The Petri dish and three lumens were placed in a tray in a 173 L sterilization chamber, and the chamber was evacuated to 0.4 torr. A total of 3 g of 59 wt % hydrogen peroxide was vaporized in the vaporizer and diffused into the sterilization chamber over a period of 5 minutes, and the pressure in the sterilization chamber was reduced to the desired value, and the valve between the sterilization chamber and the vacuum pump was closed. The hydrogen peroxide was then allowed to diffuse in the sterilization chamber for 20 minutes.
# [3] = system: Bacillus stearothermophilus spores; conditions: 3 g of 59 wt % hydrogen peroxide, 5 Minutes Vaporization and 20 Minutes Diffusion; remark: listed apart in the source
# Text: as §1
# In Example 3, the pressure in the sterilization chamber was reduced to 0.4 torr, a total of 3 g of 59 wt % hydrogen peroxide was placed in the vaporizer, and the hydrogen peroxide was vaporized and diffused into the sterilization chamber for 5 minutes. The hydrogen peroxide was then allowed to diffuse at various pressures for 20 minutes. The pressure in the sterilization chamber was at constant pressure by controlling the pressure with an automatic valve between the sterilization chamber and the vacuum pump.
# The experiment on the first line of Table 5 is the control experiment, in which the hydrogen peroxide was vaporized into the chamber and allowed to diffuse with the valve between the sterilization chamber and the vacuum pump closed. The pressure in the sterilization chamber was 9.5 torr, which is higher than the vapor pressure of 43 mole % hydrogen peroxide/water solution at 20° C., the approximate temperature of the equipment in the sterilization chamber, as shown in Table 2.
# In the experiments described on the following lines of Table 5, the 3 grams of 59 wt % hydrogen peroxide was vaporized for 5 minutes.
# The pressure in the sterilization chamber was then reduced, and the condensed vapor was vaporized and allowed to diffuse at constant pressure for 20 minutes. The interior of the sterilization chamber was maintained at a constant pressure by the automatic valve between the sterilization chamber and the vacuum pump. The constant pressure in the sterilization chamber ranged from 7 torr to 1 torr.
# In the examples on the following lines, the same procedure was followed, vaporizing 3 g of 59 wt % hydrogen peroxide for 5 minutes and diffusing at constant pressure for 20 minutes. The constant diffusion pressure ranged from 1 to 6 torr.
# [4] = system: Bacillus stearothermophilus spores; conditions: 3 g of 57% hydrogen peroxide, 5 Minutes Vaporization
# Text: The Petri dish contained a biological challenge consisting of 2.2×10^6 Bacillus stearothermophilus spores on a stainless steel coupon. A coupon was also placed in the center of each of the three lumens. The coupon in the Petri dish was used as a test of the effectiveness of the method at sterilizing the exterior of a device, and the coupons in the lumens were a test of the effectiveness of sterilizing the interior of the lumens. In Example 5, the Petri dish and three lumens were placed in a tray with 40 medical devices in the sterilization chamber, the chamber was evacuated to 0.4 torr, 3 g of 57% hydrogen peroxide were vaporized into the chamber over 5 minutes, and the chamber was vented to 1 atmosphere. The hydrogen peroxide was then allowed to diffuse for a total of 20 minutes, either at 1 atmosphere pressure or 4 torr. In the first experiment in Table 7, the sterilization chamber was vented to atmosphere after the hydrogen peroxide was vaporized into the sterilization chamber, and the hydrogen peroxide vapor was allowed to diffuse at 1 atmosphere for 19.5 minutes. […] The first experiment was the control experiment for the second experiment. In the second experiment in Table 7, the sterilization chamber was vented to atmosphere for 0.5 minutes, then the pressure in the sterilization chamber was reduced to 4 torr and controlled at that pressure for a total of 19.5 minutes.
# [5] = system: Bacillus stearothermophilus spores; conditions: 5 minutes vaporization, no revaporization
# Text: In Example 1, the following items were placed in a CSR-wrapped tray in a 173 L sterilization chamber: Open Petri dish 2.48 mm id×50 cm Teflon lumen 2.48 mm id×75 cm Teflon lumen 2.48 mm id×100 cm Teflon lumen 40 pieces of medical devices The Petri dish contained a biological challenge consisting of 2.2×10^6 Bacillus stearothermophilus spores on a stainless steel coupon. A coupon was also placed in the center of each of the three lumens. The coupon in the Petri dish was used as a test of the effectiveness of the method at sterilizing the exterior of a device, and the coupons in the lumens were a test of the effectiveness of sterilizing the interior of the lumens. Three experiments were performed in which 1, 2, and 3 g of 59 wt % hydrogen peroxide were introduced into the vaporizer after the chamber was evacuated to 0.4 torr and allowed to vaporize and diffuse into the chamber for 5 minutes.
# [6] = system: Bacillus stearothermophilus spores; conditions: 3 g of 59% hydrogen peroxide, 5 Minutes Vaporization
# Text: as §1, with “the lumens. In Example 2, the test of Example 1 with 3 g of 59% hydrogen peroxide was repeated with the addition of 20 minutes exposure time to the hydrogen peroxide vapor.” for “the lumens.”
# [7] = 3 grams of 59% hydrogen peroxide, Cycle with Two-Vaporization Process: 5 minutes vaporization, 4 torr 5 minutes, vent 1 atmosphere 0.5 minutes, 4 torr 14.5 minutes
# [8] = control: 5 Minutes Vaporization plus 20 Minutes Diffusion at 1 atm.
# [9] = Valve closed at 1 torr, final pressure about 1.7 torr
# [10] = Valve closed at 2 torr, final pressure about 2.8 torr
# [11] = Reducing and controlling at 1 torr
# [12] = Reducing and controlling at 2 torr
# [13] = Reducing and controlling at 3 torr
# [14] = Reducing and controlling at 4 torr
# [15] = Reducing and controlling at 5 torr
# [16] = Reducing and controlling at 6 torr
# [17] = Reducing and controlling at 7 torr
# [18] = Without pump-down, final pressure about 9.5 torr
# [19] = 0.5 Minutes Vent Plus 19.5 Minutes Reducing and Controlling at 4 Torr
# [20] = 0.5 Minutes Vent Plus 19.5 Minutes at 1 Atm.
compound,measurement,setting,value
OO [hydrogen peroxide],Sterility Results In 2.48 mm × 50 cm lumen,[1]; [7],−
same,Sterility Results In 2.48 mm × 75 cm lumen,[1]; [7],−
same,Sterility Results In 2.48 mm × 100 cm lumen,[1]; [7],−
same,Sterility Results In Open Petri Dish,[1]; [7],−
same,Sterility Results In 2.48 mm × 50 cm lumen,[1]; [8],−
same,Sterility Results In 2.48 mm × 75 cm lumen,[1]; [8],+
same,Sterility Results In 2.48 mm × 100 cm lumen,[1]; [8],+
same,Sterility Results In Open Petri Dish,[1]; [8],−
same,Sterility Results In 2.48 mm × 50 cm lumen,[2]; [9],−
same,Sterility Results In 2.48 mm × 75 cm lumen,[2]; [9],−
same,Sterility Results In 2.48 mm × 100 cm lumen,[2]; [9],+
same,Sterility Results In Open Petri Dish,[2]; [9],−
same,Sterility Results In 2.48 mm × 50 cm lumen,[2]; [10],−
same,Sterility Results In 2.48 mm × 75 cm lumen,[2]; [10],−
same,Sterility Results In 2.48 mm × 100 cm lumen,[2]; [10],−
same,Sterility Results In Open Petri Dish,[2]; [10],−
same,Sterility Results In 2.48 mm × 50 cm lumen,[3]; [11],−
same,Sterility Results In 2.48 mm × 75 cm lumen,[3]; [11],+
same,Sterility Results In 2.48 mm × 100 cm lumen,[3]; [11],+
same,Sterility Results In Open Petri Dish,[3]; [11],−
same,Sterility Results In 2.48 mm × 50 cm lumen,[3]; [12],−
same,Sterility Results In 2.48 mm × 75 cm lumen,[3]; [12],−
same,Sterility Results In 2.48 mm × 100 cm lumen,[3]; [12],+
same,Sterility Results In Open Petri Dish,[3]; [12],−
same,Sterility Results In 2.48 mm × 50 cm lumen,[3]; [13],−
same,Sterility Results In 2.48 mm × 75 cm lumen,[3]; [13],−
same,Sterility Results In 2.48 mm × 100 cm lumen,[3]; [13],−
same,Sterility Results In Open Petri Dish,[3]; [13],−
same,Sterility Results In 2.48 mm × 50 cm lumen,[3]; [14],−
same,Sterility Results In 2.48 mm × 75 cm lumen,[3]; [14],−
same,Sterility Results In 2.48 mm × 100 cm lumen,[3]; [14],−
same,Sterility Results In Open Petri Dish,[3]; [14],−
same,Sterility Results In 2.48 mm × 50 cm lumen,[3]; [15],−
same,Sterility Results In 2.48 mm × 75 cm lumen,[3]; [15],−
same,Sterility Results In 2.48 mm × 100 cm lumen,[3]; [15],−
same,Sterility Results In Open Petri Dish,[3]; [15],−
same,Sterility Results In 2.48 mm × 50 cm lumen,[3]; [16],−
same,Sterility Results In 2.48 mm × 75 cm lumen,[3]; [16],−
same,Sterility Results In 2.48 mm × 100 cm lumen,[3]; [16],−
same,Sterility Results In Open Petri Dish,[3]; [16],−
same,Sterility Results In 2.48 mm × 50 cm lumen,[3]; [17],−
same,Sterility Results In 2.48 mm × 75 cm lumen,[3]; [17],−
same,Sterility Results In 2.48 mm × 100 cm lumen,[3]; [17],+
same,Sterility Results In Open Petri Dish,[3]; [17],−
same,Sterility Results In 2.48 mm × 50 cm lumen,[3]; [18],−
same,Sterility Results In 2.48 mm × 75 cm lumen,[3]; [18],+
same,Sterility Results In 2.48 mm × 100 cm lumen,[3]; [18],+
same,Sterility Results In Open Petri Dish,[3]; [18],−
same,Sterility Results In 2.48 mm × 50 cm lumen,[4]; [19],−
same,Sterility Results In 2.48 × 75 cm Lumen,[4]; [19],−
same,Sterility Results In 2.48 × 100 cm lumen,[4]; [19],−
same,Sterility Results In Open Petri Dish,[4]; [19],−
same,Sterility Results In 2.48 mm × 50 cm lumen,[4]; [20],−
same,Sterility Results In 2.48 × 75 cm Lumen,[4]; [20],+
same,Sterility Results In 2.48 × 100 cm lumen,[4]; [20],+
same,Sterility Results In Open Petri Dish,[4]; [20],−
same,Sterility Results In 2.48 mm × 50 cm Teflon lumen,[5]; 1 g 59% hydrogen peroxide,−
same,Sterility Results In 2.48 mm × 75 cm Teflon lumen,[5]; 1 g 59% hydrogen peroxide,+
same,Sterility Results In 2.48 × 100 cm Teflon lumen,[5]; 1 g 59% hydrogen peroxide,+
same,Sterility Results In Open Petri Dish,[5]; 1 g 59% hydrogen peroxide,−
same,Sterility Results In 2.48 mm × 50 cm Teflon lumen,[5]; 2 g 59% hydrogen peroxide,−
same,Sterility Results In 2.48 mm × 75 cm Teflon lumen,[5]; 2 g 59% hydrogen peroxide,+
same,Sterility Results In 2.48 × 100 cm Teflon lumen,[5]; 2 g 59% hydrogen peroxide,+
same,Sterility Results In Open Petri Dish,[5]; 2 g 59% hydrogen peroxide,−
same,Sterility Results In 2.48 mm × 50 cm Teflon lumen,[5]; 3 g 59% hydrogen peroxide,−
same,Sterility Results In 2.48 mm × 75 cm Teflon lumen,[5]; 3 g 59% hydrogen peroxide,+
same,Sterility Results In 2.48 × 100 cm Teflon lumen,[5]; 3 g 59% hydrogen peroxide,+
same,Sterility Results In Open Petri Dish,[5]; 3 g 59% hydrogen peroxide,−
same,Sterility Results In 2.48 mm × 50 cm lumen,[6]; Diffusion Time 0 Minute,−
same,Sterility Results In 2.48 mm × 75 cm lumen,[6]; Diffusion Time 0 Minute,+
same,Sterility Results In 2.48 × 100 cm lumen,[6]; Diffusion Time 0 Minute,+
same,Sterility Results In Open Petri Dish,[6]; Diffusion Time 0 Minute,−
same,Sterility Results In 2.48 mm × 50 cm lumen,[6]; Diffusion Time 20 Minutes,−
same,Sterility Results In 2.48 mm × 75 cm lumen,[6]; Diffusion Time 20 Minutes,+
same,Sterility Results In 2.48 × 100 cm lumen,[6]; Diffusion Time 20 Minutes,+
same,Sterility Results In Open Petri Dish,[6]; Diffusion Time 20 Minutes,−

# Reference: patent publication US6451254B1, “Sterilization of diffusion-restricted area by revaporizing the condensed vapor” (Ethicon, Inc., priority 1998, dated 2002)
